# What was measured:
# [1] = tested on: bacterial reverse mutation assay (Ames test); assay: In vitro bacterial reverse mutation assay (Ames test); assay type: cell-based; conditions: with or without metabolic activation
# From the text: MDMA was not mutagenic with or without metabolic activation in the in vitro bacterial reverse mutation assay (Ames test).
# [2] = tested on: male rats; assay: In vivo genotoxicity (micronucleated polychromatic erythrocytes), male rats; parameters: species or system rat; conditions: oral, doses up to 100 mg/kg day over two days
# From the text: No statistically significant differences in micronucleated polychromatic erythrocytes or bone marrow cytotoxicity were observed across all dose levels.
# [3] = Study MPKF: safety and tolerability (AEs, laboratory, vital signs); assay type: in vivo, human; conditions: human, plasma, oral, 120 mg, 1 participant, no AEs reported
# From the text: (§1) The MPKF was a Phase 1, open-label, randomized sequence, multi-dose, 2-period crossover food effect study in 16 healthy individuals. The MPKF study evaluated plasma concentrations of both MDMA and the active metabolite 3,4-methylenedioxyamphetamine (MDA). Summary PK Parameters of the preliminary data was based on interim analysis are presented in Table 12 Table 12 Table 12, and Table 13 Table 13 Table 13 for MDMA and MDA, respectively.
# (§2) Participants remained at the clinical research unit (CRU) for each Dosing Session from the time of check-in on the night before dosing until discharge 48 hours after dosing for collection of serial blood samples for PK analysis and safety monitoring. IMP was administered on Day 1 following the treatment sequence to which the participant was randomized. An additional outpatient visit occurred 72 hours after dosing to collect a final PK sample, commensurate with the expected PK profiles of MDMA and MDA. Safety assessments were also performed at this visit.
# (§3) The washout period between Dosing Sessions was at least 14 days. If a participant experienced emesis within 4 hours of administration, they were to be withdrawn from the study and replaced with a new participant. An End of Study Visit was performed 2 to 10 days after the completion of the final Dosing Session 72-hour follow-up. An informal interim analysis was planned to be conducted after at least 5 participants completed at least 1 Dosing Session to examine PK variability.
# [4] = tested on: healthy individuals; assay: as above; assay type: in vivo, human
# From the text: as §1, §2, §3
# [5] = tested on: participants with PTSD of moderate or greater severity; assay: MAPP2 Phase 3: safety, adverse events; assay type: in vivo, human
# Protocol: MAPP2 was a Phase 3 randomized, placebo-controlled, 2-arm, double-blind, multi-site study conducted to investigate the efficacy and safety of MDMA-AT in participants with PTSD of moderate or greater severity. This study included 3 experimental sessions of therapy combined with either MDMA or placebo. During Experimental Session 1, participants received a split dose of 120 mg (80 mg+40 mg). Participants received an escalated split dose of 180 mg during Experimental Sessions 2 and 3 unless there were tolerability issues or the participant declined.
# Overall, 102 (98.1%) participants reported at least 1 TEAE during the study period (Table 52riod (Table 52riod (Table 52). Of these, 2 (3.9%) participants from the placebo group were discontinued due to TEAE (abdominal pain and suicidal ideation). There were no serious TEAEs or deaths reported during the study. Adverse events of special interest included a subset of AEs involving cardiac function, suicidality, and MDMA abuse. There were 6 (11.3%) participants in the MDMA group and 3 (5.9%) participants in the placebo group with an TEAE of special interest. AESIs related to suicidality were reported in 2 MDMA participants and 2 placebo participants. AESIs related to cardiac function were reported in 4 MDMA participants and 1 placebo participant (all palpitations). […] A listing of all TEAEs from MDMA-AT group with ≥5% incidence and twice the prevalence of placebo group is provided below in Table 44 Table 44 Table 44.
# [6] = target: BCRP (Homo sapiens, UniProt Q9UNQ0); assay: Transporter inhibition, BCRP; conditions: not told
# Chain of BCRP (Q9UNQ0 whole entry): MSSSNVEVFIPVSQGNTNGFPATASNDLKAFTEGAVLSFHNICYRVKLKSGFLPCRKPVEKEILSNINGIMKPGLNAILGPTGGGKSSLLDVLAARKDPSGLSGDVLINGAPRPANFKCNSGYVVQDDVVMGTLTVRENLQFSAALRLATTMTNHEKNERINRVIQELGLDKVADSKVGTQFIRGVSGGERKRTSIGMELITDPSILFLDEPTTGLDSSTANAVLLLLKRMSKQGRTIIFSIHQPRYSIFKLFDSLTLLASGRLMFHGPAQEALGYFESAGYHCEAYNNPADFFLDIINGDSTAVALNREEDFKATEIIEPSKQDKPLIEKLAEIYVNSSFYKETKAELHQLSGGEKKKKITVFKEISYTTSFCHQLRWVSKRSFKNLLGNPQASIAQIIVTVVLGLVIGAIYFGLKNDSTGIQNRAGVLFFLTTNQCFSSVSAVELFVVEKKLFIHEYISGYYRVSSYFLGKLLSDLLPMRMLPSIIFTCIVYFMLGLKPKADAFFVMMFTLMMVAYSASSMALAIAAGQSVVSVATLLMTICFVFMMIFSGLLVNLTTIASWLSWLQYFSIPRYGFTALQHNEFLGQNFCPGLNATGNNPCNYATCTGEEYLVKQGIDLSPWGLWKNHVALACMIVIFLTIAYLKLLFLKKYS
structure (smiles),measurement,setting,value
"CNC(C)Cc1ccc2c(c1)OCO2 (stereo not shown) [MDMA, 3,4-methylenedioxymethamphetamine]","mutagenicity, Ames test",[1],not mutagenic
same,genotoxicity in vivo,[2],no signs of genotoxicity
same,AUC(0-inf),[3]; read-out: AUC0-inf at which tolerability is supported,8920 ng·h/mL
same,Cmax,[3]; read-out: Cmax at which tolerability is supported,440 ng/mL
same,participants with SBP≥160 mmHg or DBP≥100 mmHg or temperature>38.3° C.,[4]; any timepoint,No participant
same,"time of largest mean changes in SBP, DBP, temperature",[4]; fasted condition,2 h
same,"time of largest mean changes in SBP, DBP, temperature",[4]; fed group,4 h
same,"difference in largest mean change of SBP, fasted vs fed",[4]; non-clinically significant,about +5 mmHg
same,"difference in largest mean change of temperature, fasted vs fed",[4]; non-clinically significant,~+0.05 °C
same,impact on biologic laboratory parameters,[4]; screening to end of study,no significant impact
same,AESIs of MDMA abuse,[5]; MAPP2,no AESIs of MDMA abuse
same,"TEAE Abdominal pain upper, %",[5]; MAPP2,(9.4) %
same,"TEAE Bruxism, %",[5]; MAPP2,(13.2) %
same,"TEAE Chest discomfort, %",[5]; MAPP2,(17.0) %
same,"TEAE Chills, %",[5]; MAPP2,(15.1) %
same,"TEAE Decreased appetite, %",[5]; MAPP2,(35.8) %
same,"TEAE Dissociation, %",[5]; MAPP2,(5.7) %
same,"TEAE Dry mouth, %",[5]; MAPP2,(17.0) %
same,"TEAE Feeling abnormal, %",[5]; MAPP2,(9.4) %
same,"TEAE Feeling cold, %",[5]; MAPP2,(20.8) %
same,"TEAE Feeling hot, %",[5]; MAPP2,(26.4) %
same,"TEAE Feeling jittery, %",[5]; MAPP2,(15.1) %
same,"TEAE Feeling of body temperature change, %",[5]; MAPP2,(9.4) %
same,"TEAE Flushing, %",[5]; MAPP2,(5.7) %
same,"TEAE Gait disturbance, %",[5]; MAPP2,(5.7) %
same,"TEAE Heart rate increased, %",[5]; MAPP2,(5.7) %
same,"TEAE Hyperhidrosis, %",[5]; MAPP2,(34.0) %
same,"TEAE Hypoaesthesia, %",[5]; MAPP2,(9.4) %
same,"TEAE Muscle spasms, %",[5]; MAPP2,(7.5) %
same,"TEAE Muscle tightness, %",[5]; MAPP2,(58.8) %
same,"TEAE Mydriasis, %",[5]; MAPP2,(11.3) %
same,"TEAE Nausea, %",[5]; MAPP2,(45.3) %
same,"TEAE Nystagmus, %",[5]; MAPP2,(13.2) %
same,"TEAE Palpitations, %",[5]; MAPP2,(9.4) %
same,"TEAE Panic attack, %",[5]; MAPP2,(5.7) %
same,"TEAE Paraesthesia, %",[5]; MAPP2,(18.9) %
same,"TEAE Restlessness, %",[5]; MAPP2,(15.1) %
same,"TEAE Thirst, %",[5]; MAPP2,(7.5) %
same,"TEAE Tremor, %",[5]; MAPP2,(11.3) %
same,"TEAE Vision blurred, %",[5]; MAPP2,(15.1) %
same,"TEAE Visual impairment, %",[5]; MAPP2,(5.7) %
same,participants with an TEAE of special interest,[5]; MAPP2,11.3%
same,"At least one TEAE of Special Interest, %","[5]; MAPP2, Safety Set",(11.3) %
same,"At least one Treatment-emergent SAE Leading to Death, %","[5]; MAPP2, Safety Set",(0.0) %
same,"At least one Treatment-emergent SAE, %","[5]; MAPP2, Safety Set",(0.0) %
same,"Discontinued study treatment due to any TEAE(s), %","[5]; MAPP2, Safety Set",(0.0) %
same,"Participants with at least 1 TEAE during Experimental Sessions and 2 Days Following, %","[5]; MAPP2, Safety Set",(100.0) %
same,"Subjects with at least 1 Severe TEAE, %","[5]; MAPP2, Safety Set",(9.4) %
same,"Subjects with at least 1 TEAE, %","[5]; MAPP2, Safety Set",(100.0) %
same,heart rate and blood pressure during experimental sessions,"[5]; MAPP2, dose-dependent, no clinical intervention required",transient increases
same,participants with at least 1 temporally related TEAE,"[5]; MAPP2, during an experiment session or up to 2 days following",All participants
same,inhibition of BCRP,[6],not an inhibitor

# From patent publication US20250134855A1, “CO[…] AND METHODS OF USING SAME” (LYKOS THERAPEUTICS, INC., priority 2022, published 2025)
